This test concerns the target mu-opioid receptor (Homo sapiens, UniProt P35372). The test can be described thus: biochemical. As to conditions: class symbols; read-out: GTP Activity.

Each structure is given as a SMILES string. Bounds are passed on as bounds.

Chain of mu-opioid receptor (P35372 whole entry, species assumed): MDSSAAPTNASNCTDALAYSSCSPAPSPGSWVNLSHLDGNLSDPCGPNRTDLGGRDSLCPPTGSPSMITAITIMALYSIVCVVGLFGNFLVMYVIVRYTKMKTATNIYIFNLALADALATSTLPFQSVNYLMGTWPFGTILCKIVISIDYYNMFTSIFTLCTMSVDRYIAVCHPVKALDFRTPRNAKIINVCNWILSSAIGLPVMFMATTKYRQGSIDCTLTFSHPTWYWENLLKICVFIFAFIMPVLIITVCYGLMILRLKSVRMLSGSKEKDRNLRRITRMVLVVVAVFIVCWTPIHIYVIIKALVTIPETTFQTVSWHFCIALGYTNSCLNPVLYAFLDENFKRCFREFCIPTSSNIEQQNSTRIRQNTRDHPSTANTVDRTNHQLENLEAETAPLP

For the compound `COc1cc(OC)cc(N2CC(=O)C(c3nc4c(C)cccc4[nH]3)=C2N)c1` [compound 5], the EC50 was 1000 to 10000 nM. On to `COc1cc(OC)cc(N2CC(=O)C(c3nc4cc(C)ccc4[nH]3)=C2N)c1` [compound 6], for which the EC50 is 1000 to 10000 nM.

With `COc1cc(OC)cc(N2CC(=O)C(c3nc4cc(OC)ccc4[nH]3)=C2N)c1` [compound 7], the EC50 lay within 1000 to 10000 nM. The value for `COc1cc(OC)cc(N2CC(=O)C(c3nc4c(F)cccc4[nH]3)=C2N)c1` [compound 11] was 1000 to 10000 nM; that for `Cc1cc(C)cc(N2CC(=O)C(c3nc4c(C)cccc4[nH]3)=C2N)c1` [compound 14] was 1000 to 10000 nM. The value for `Cc1ccc(C)c(N2CC(=O)C(c3nc4cc(C)ccc4[nH]3)=C2N)c1` [compound 15] was 1000 to 10000 nM. The value for `COc1ccc(OC)c(N2CC(=O)C(c3nc4c(C)cccc4[nH]3)=C2N)c1` [compound 16] was 1000 to 10000 nM. Turning to `Cc1ccc(C)c(N2CC(=O)C(c3nc4c(C)cccc4[nH]3)=C2N)c1` [compound 17], the EC50 was in the range of 1000 to 10000 nM. In the case of `COc1cc(OC)cc(N2CC(=O)C(c3cn4ccccc4n3)=C2N)c1` [compound 41], the EC50 lay within 1000 to 10000 nM.

On to `CC(C)(C)Oc1ccccc1N1CC(=O)C(c2nc3ccccc3[nH]2)=C1N` [compound 45], for which the EC50 fell in the range of 1000 to 10000 nM. With `NC1=C(c2nc3ccccc3[nH]2)C(=O)CN1c1ccccc1Oc1ccccc1` [compound 46], the EC50 lay within 1000 to 10000 nM. For `CC(C)(C)c1ccccc1N1CC(=O)C(c2nc3ccccc3[nH]2)=C1N` [compound 48], the EC50 is 1000 to 10000 nM.

For `CCC1(C)C(=O)C(c2nc3ccccc3[nH]2)=C(N)N1c1cc(OC)cc(OC)c1` (centres unmarked) [compound 53], the EC50 was 100 to 1000 nM. As to `COc1cc(OC)cc(N2C(N)=C(c3nc4ccccc4[nH]3)C(=O)C2O)c1` (centres unmarked) [compound 57], the EC50 lay within 100 to 1000 nM. For the compound `COc1cc(OC)cc(-n2nc(N)c(-c3nc4ccccc4[nH]3)c2N)c1` [compound 66], the EC50 is 100 to 1000 nM.

For `COc1cc(OC)cc(N2C(N)=C(c3nc4ccccc4[nH]3)C(=O)C2CO)c1` (centres unmarked) [compound 67], the EC50 lay within 1000 to 10000 nM. The value for `COCC1C(=O)C(c2nc3ccccc3[nH]2)=C(N)N1c1cc(OC)cc(OC)c1` (centres unmarked) [compound 68] was 100 to 1000 nM; that for `COCCC1C(=O)C(c2nc3ccccc3[nH]2)=C(N)N1c1cc(OC)cc(OC)c1` (centres unmarked) [compound 69] was 100 to 1000 nM; that for `COc1cc(OC)cc(N2C(N)=C(c3nc4ccccc4[nH]3)C(=O)C2CN)c1` (centres unmarked) [compound 70] was 100 to 1000 nM. In the case of `COc1cc(OC)cc(-n2c(=O)c(-c3nc4ccccc4[nH]3)c(N)n2C(C)C)c1` [compound 74] it was 1000 to 10000 nM; in that of `CNC1=C(c2nc3ccccc3n2C)C(=O)C(C)(C)N1c1cc(OC)cc(OC)c1` [compound 81], 100 to 1000 nM. For `COc1cc(OC)cc(N2C(N)=C(c3nc4ccccc4[nH]3)C(=O)[C@@H]2C)c1` [compound 83], the EC50 lay in the range of 1000 to 10000 nM. The value for `CC[C@]1(C)C(=O)C(c2nc3ccccc3[nH]2)=C(N)N1c1cc(OC)cc(OC)c1` [compound 84] was 100 to 1000 nM; that for `CC[C@@]1(C)C(=O)C(c2nc3ccccc3[nH]2)=C(N)N1c1cc(OC)cc(OC)c1` [compound 85] was 100 to 1000 nM. The value for `COc1cc(OC)cc(-n2c(N)c(-c3nc4ccccc4[nH]3)c(=O)n2C)c1` [compound 86] was 100 to 1000 nM; that for `COCCNC1=C(c2nc3ccccc3[nH]2)C(=O)C(C)(C)N1c1cc(OC)cc(OC)c1` [compound 91] was 1000 to 10000 nM; that for `CC[C@@H]1C(=O)C(c2nc3ccccc3[nH]2)=C(N)N1c1cc(OC)cc(OC)c1` [compound 97] was 1000 to 10000 nM. Regarding `Cc1ccc(N2C(N)=C(c3nc4ccccc4[nH]3)C(=O)C2(C)C)c(C)c1` [compound 101], the EC50 fell in the range of 100 to 1000 nM.

Consider `Cc1cc(C)cc(N2C(N)=C(c3nc4ccccc4[nH]3)C(=O)C2(C)C)c1` [compound 102], for which the EC50 lay in the range of 100 to 1000 nM. For the compound `CNC1=C(c2nc3ccccc3[nH]2)C(=O)C(C)(C)N1c1ccc(C)cc1C` [compound 104], the EC50 was 1000 to 10000 nM. As for `CNC1=C(c2nc3ccccc3[nH]2)C(=O)C(C)(C)N1c1cc(C)cc(C)c1` [compound 105], the EC50 lay in the range of 100 to 1000 nM. In the case of `COc1cc(OC)cc(N2C(N)=C(c3nc4ccccc4[nH]3)C(=O)[C@@H]2c2ccccc2)c1` [compound 106] it was 1000 to 10000 nM. For `COc1cc(OC)cc(N2C(N)=C(c3nc4ccccc4[nH]3)C(=O)C23CCC3)c1` [compound 108], the EC50 is below 100 nM.

Regarding `COc1cc(OC)cc(-n2c(N)c(-c3nc4ccccc4[nH]3)c(=N)n2C)c1` [compound 110], the EC50 was in the range of 100 to 1000 nM. With `COc1cc(OC)cc(N2C(N)=C(c3nc4ccccc4[nH]3)C(=O)C2(C)O)c1` (centres unmarked) [compound 112], the EC50 lay in the range of 100 to 1000 nM. The value for `CCC1(O)C(=O)C(c2nc3ccccc3[nH]2)=C(N)N1c1cc(OC)cc(OC)c1` (centres unmarked) [compound 113] was 100 to 1000 nM; that for `CNC1=C(c2nc3ccccc3[nH]2)C(=O)C(C)(O)N1c1cc(OC)cc(OC)c1` (centres unmarked) [compound 114] was 100 to 1000 nM; that for `CCC1(O)C(=O)C(c2nc3ccccc3[nH]2)=C(NC)N1c1cc(OC)cc(OC)c1` (centres unmarked) [compound 115] was 100 to 1000 nM.

For the compound `COc1cc(OC)cc(N2C(N)=C(c3nc4ccccc4[nH]3)C(=O)C2(C)OC)c1` (centres unmarked) [compound 119], the EC50 lay in the range of 1000 to 10000 nM.

As for `CNC1=C(c2nc3ccccc3[nH]2)C(=O)C(C)(OC)N1c1cc(OC)cc(OC)c1` (centres unmarked) [compound 120], the EC50 lay within 100 to 1000 nM. In the case of `C=CCNC1=C(c2nc3ccccc3[nH]2)C(=O)C(C)(C)N1c1cc(OC)cc(OC)c1` [compound 122] it was 100 to 1000 nM. The value for `COc1cc(OC)cc(N2C(NCC3CC3)=C(c3nc4ccccc4[nH]3)C(=O)C2(C)C)c1` [compound 125] was 1000 to 10000 nM; that for `COc1cc(OC)cc(N2C(Nc3ccccc3)=C(c3nc4ccccc4[nH]3)C(=O)C2(C)C)c1` [compound 126] was 1000 to 10000 nM; that for `CNC1=C(c2nc3ccccc3[nH]2)C(=O)C(C)(C)N1c1cc(O)cc(OC)c1` [compound 129] was 100 to 1000 nM. The value for `COc1cc(OC)cc(N2C(N)=C(c3nc4ccccc4[nH]3)C(=O)C23CC3)c1` [compound 131] was 1000 to 10000 nM.

In the case of `COc1cc(OC)cc(N2C(N)=C(c3nc4ccccc4[nH]3)C(=O)C2(C)CO)c1` (centres unmarked) [compound 133], the EC50 lay within 100 to 1000 nM. For `COC(=O)C1C(=O)C(c2nc3ccccc3[nH]2)=C(N)N1c1cc(OC)cc(OC)c1` (centres unmarked) [compound 134], the EC50 lay within 1000 to 10000 nM.

`[2H]C([2H])([2H])Oc1cc(OC([2H])([2H])[2H])cc(N2C(N)=C(c3nc4ccccc4[nH]3)C(=O)C2(C)C)c1` [compound 135]: the EC50 lay in the range of 100 to 1000 nM. Regarding `CNc1c(-c2nc3ccccc3[nH]2)c(=O)n(C)n1-c1cc(OC)cc(OC)c1` [compound 140], the EC50 is below 100 nM. With `COc1cc(OC)cc(-n2c(NO)c(-c3nc4ccccc4[nH]3)c(=O)n2C)c1` [compound 143], the EC50 lay within 1000 to 10000 nM. For the compound `COc1cc(OC)cc(N2C(N3CCCC3)=C(c3nc4ccccc4[nH]3)C(=O)C2(C)C)c1` [compound 144], the EC50 was in the range of 1000 to 10000 nM.

For the compound `CCc1cc(OC)cc(N2C(N)=C(c3nc4ccccc4[nH]3)C(=O)C2(C)C)c1` [compound 155], the EC50 was 100 to 1000 nM. The value for `CCc1cc(CC)cc(N2C(N)=C(c3nc4ccccc4[nH]3)C(=O)C2(C)C)c1` [compound 156] was 100 to 1000 nM.

Values taken from patent US9580409B2, “Modulators of opioid receptors and methods of use thereof” (priority 2011, dated 2017).
